Reference: PMC9316543, “Characterization, Expression Profiling, and Biochemical Analyses of the Cinnamoyl-CoA Reductase Gene Family for Lignin Synthesis in Alfalfa Plants” (International Journal of Molecular Sciences, 2022)
Where two headings read alike, the source gives them in different places.

Assays:
MsCCR1 = system: T1, MsCCR1; test: NADPH oxidation, decrease of A366; format: biochemical, Medicago sativa; settings: NADPH 160 μM, 1x PBS, substrate 30-150 μM
T1 construct: gene CCR1; His-tagged, pET-28a, E. coli BL21, Ni-NTA; tag removal not mentioned
From the text: NADPH oxidation, decrease of A366 on MsCCR1

MsCCR-like1 = system: T2, MsCCR-like1; test: NADPH oxidation, decrease of A366; format: biochemical, Medicago sativa; settings: NADPH 160 μM, 1x PBS, substrate 30-150 μM
T2 construct: His-tagged, pET-28a, E. coli BL21, Ni-NTA; tag removal not mentioned
From the text: NADPH oxidation, decrease of A366 on MsCCR-like1

[1] = read-out: p-Coumaroyl-CoA / K m

A Km (MsCCR1; read-out: Feruloyl-CoA / K m) of 45.2 ± 11.4 µM was found for COc1cc(/C=C/C(=O)SCCNC(=O)CCNC(=O)[C@H](O)C(C)(C)COP(=O)(O)OP(=O)(O)OC[C@H]2O[C@@H](n3cnc4c(N)ncnc43)[C@H](O)[C@@H]2OP(=O)(O)O)ccc1O [Feruloyl-CoA] in this work.

A Km (MsCCR1; [1]) of 24.2 ± 4.51 µM and a Km (MsCCR-like1; [1]) of 44.1 ± 7.12 µM were found for CC(C)(COP(=O)(O)OP(=O)(O)OC[C@H]1O[C@@H](n2cnc3c(N)ncnc32)[C@H](O)[C@@H]1OP(=O)(O)O)[C@@H](O)C(=O)NCCC(=O)NCCSC(=O)/C=C/c1ccc(O)cc1 [p-Coumaroyl-CoA] in this work.

A Km (MsCCR-like1; read-out: Caffeoyl-CoA / K m) of 48.2 ± 1.75 µM was found for CC(C)(COP(=O)(O)OP(=O)(O)OC[C@H]1O[C@@H](n2cnc3c(N)ncnc32)[C@H](O)[C@@H]1OP(=O)(O)O)[C@@H](O)C(=O)NCCC(=O)NCCSC(=O)/C=C/c1ccc(O)c(O)c1 [Caffeoyl-CoA] in this work.

A Km (MsCCR1; read-out: Sinapoyl-CoA / K m) of 10.6 ± 1.25 µM was found for COc1cc(/C=C/C(=O)SCCNC(=O)CCNC(=O)[C@H](O)C(C)(C)COP(=O)(O)OP(=O)(O)OC[C@H]2O[C@@H](n3cnc4c(N)ncnc43)[C@H](O)[C@@H]2OP(=O)(O)O)cc(OC)c1O [Sinapoyl-CoA] in this work.
